For experiment [1], the target named is human sodium channel Nav 1.8 (Homo sapiens (Human), UniProt Q9Y5Y9). Kind of experiment: Automated whole-cell voltage-clamp (ScreenPatch 384P), Nav 1.8 sodium current, Protocol 2. Format: cell-based. The note with it: read-out: Nav1.8 IC50. The procedure, abridged:
(§1)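 Peak TP1A sodium current block, scaled between DMSO vehicle and positive control, was fitted with a Hill equation to give IC50 at eight compound concentrations (≥5 min, room temperature) in stable CHO lines. Protocol 2 (0.05 Hz) used an 8 s −40 mV inactivating prepulse from −100 mV; Protocol 1 (0.1 Hz) held at −90 mV; test steps 10 mV for Nav1.8, 0 mV for Nav1.7.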

Experiment [2] addresses human sodium channel Nav 1.7 (Homo sapiens (Human), UniProt Q15858). Kind of experiment: Automated whole-cell voltage-clamp (ScreenPatch 384P), Nav 1.7 sodium current, Protocol 2. Format: cell-based. The note with it: read-out: Nav1.7 IC50. The procedure, abridged: as §1

Each structure is given as a SMILES string. A value given as a limit tells only on which side of the number the result lay.

human sodium channel Nav 1.7, sequence (Q15858 whole entry): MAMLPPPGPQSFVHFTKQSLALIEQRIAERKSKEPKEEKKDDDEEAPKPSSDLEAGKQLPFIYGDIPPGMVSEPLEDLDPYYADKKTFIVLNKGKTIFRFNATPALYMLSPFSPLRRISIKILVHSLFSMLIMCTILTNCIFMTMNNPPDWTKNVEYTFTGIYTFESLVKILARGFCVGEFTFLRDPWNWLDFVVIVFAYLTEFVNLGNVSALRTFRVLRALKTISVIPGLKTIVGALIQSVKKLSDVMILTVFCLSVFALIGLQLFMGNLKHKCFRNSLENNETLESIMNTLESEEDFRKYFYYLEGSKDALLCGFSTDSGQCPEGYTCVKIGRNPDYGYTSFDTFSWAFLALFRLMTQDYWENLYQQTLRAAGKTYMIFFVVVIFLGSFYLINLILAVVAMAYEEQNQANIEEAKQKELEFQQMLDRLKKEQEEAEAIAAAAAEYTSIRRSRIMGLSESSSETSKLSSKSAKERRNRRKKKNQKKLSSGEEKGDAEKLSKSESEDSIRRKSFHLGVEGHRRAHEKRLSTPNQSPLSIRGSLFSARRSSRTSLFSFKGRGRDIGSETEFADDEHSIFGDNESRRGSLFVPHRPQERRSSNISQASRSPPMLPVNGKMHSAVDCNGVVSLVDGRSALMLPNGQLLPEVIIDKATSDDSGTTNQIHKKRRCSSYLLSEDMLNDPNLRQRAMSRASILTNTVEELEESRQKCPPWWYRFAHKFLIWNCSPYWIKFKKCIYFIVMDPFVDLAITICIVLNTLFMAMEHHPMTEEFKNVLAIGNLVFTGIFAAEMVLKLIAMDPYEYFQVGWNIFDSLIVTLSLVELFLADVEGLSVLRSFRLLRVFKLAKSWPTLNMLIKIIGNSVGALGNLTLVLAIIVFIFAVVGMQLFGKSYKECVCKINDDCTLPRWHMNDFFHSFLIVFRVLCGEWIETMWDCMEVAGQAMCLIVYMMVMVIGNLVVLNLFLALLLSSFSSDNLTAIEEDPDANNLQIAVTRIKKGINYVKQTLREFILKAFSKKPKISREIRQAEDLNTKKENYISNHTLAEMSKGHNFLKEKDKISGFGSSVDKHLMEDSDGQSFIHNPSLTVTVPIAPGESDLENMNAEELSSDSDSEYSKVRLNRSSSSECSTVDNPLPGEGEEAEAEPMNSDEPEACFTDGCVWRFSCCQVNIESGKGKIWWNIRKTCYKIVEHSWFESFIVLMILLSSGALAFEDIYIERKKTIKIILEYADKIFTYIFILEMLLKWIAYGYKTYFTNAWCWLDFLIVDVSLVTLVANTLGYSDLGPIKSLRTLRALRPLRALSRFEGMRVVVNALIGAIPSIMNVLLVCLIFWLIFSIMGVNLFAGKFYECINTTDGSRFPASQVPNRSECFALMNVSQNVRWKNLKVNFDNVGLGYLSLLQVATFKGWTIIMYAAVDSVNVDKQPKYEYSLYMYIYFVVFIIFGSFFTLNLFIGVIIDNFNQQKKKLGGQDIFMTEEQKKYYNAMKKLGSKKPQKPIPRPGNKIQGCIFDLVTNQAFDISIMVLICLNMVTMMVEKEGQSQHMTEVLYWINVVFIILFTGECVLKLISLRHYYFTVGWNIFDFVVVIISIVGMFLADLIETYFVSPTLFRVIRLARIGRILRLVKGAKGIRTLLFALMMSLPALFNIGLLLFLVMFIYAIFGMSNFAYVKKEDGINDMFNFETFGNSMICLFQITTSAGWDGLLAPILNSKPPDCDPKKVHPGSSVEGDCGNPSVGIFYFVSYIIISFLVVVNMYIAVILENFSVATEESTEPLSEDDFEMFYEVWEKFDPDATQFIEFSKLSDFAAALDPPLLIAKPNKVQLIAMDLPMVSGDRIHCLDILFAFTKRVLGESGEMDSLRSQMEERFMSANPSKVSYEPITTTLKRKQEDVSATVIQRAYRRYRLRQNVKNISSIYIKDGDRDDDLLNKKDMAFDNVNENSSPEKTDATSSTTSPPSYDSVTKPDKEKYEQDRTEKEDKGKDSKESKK
human sodium channel Nav 1.8, sequence (Q9Y5Y9 whole entry): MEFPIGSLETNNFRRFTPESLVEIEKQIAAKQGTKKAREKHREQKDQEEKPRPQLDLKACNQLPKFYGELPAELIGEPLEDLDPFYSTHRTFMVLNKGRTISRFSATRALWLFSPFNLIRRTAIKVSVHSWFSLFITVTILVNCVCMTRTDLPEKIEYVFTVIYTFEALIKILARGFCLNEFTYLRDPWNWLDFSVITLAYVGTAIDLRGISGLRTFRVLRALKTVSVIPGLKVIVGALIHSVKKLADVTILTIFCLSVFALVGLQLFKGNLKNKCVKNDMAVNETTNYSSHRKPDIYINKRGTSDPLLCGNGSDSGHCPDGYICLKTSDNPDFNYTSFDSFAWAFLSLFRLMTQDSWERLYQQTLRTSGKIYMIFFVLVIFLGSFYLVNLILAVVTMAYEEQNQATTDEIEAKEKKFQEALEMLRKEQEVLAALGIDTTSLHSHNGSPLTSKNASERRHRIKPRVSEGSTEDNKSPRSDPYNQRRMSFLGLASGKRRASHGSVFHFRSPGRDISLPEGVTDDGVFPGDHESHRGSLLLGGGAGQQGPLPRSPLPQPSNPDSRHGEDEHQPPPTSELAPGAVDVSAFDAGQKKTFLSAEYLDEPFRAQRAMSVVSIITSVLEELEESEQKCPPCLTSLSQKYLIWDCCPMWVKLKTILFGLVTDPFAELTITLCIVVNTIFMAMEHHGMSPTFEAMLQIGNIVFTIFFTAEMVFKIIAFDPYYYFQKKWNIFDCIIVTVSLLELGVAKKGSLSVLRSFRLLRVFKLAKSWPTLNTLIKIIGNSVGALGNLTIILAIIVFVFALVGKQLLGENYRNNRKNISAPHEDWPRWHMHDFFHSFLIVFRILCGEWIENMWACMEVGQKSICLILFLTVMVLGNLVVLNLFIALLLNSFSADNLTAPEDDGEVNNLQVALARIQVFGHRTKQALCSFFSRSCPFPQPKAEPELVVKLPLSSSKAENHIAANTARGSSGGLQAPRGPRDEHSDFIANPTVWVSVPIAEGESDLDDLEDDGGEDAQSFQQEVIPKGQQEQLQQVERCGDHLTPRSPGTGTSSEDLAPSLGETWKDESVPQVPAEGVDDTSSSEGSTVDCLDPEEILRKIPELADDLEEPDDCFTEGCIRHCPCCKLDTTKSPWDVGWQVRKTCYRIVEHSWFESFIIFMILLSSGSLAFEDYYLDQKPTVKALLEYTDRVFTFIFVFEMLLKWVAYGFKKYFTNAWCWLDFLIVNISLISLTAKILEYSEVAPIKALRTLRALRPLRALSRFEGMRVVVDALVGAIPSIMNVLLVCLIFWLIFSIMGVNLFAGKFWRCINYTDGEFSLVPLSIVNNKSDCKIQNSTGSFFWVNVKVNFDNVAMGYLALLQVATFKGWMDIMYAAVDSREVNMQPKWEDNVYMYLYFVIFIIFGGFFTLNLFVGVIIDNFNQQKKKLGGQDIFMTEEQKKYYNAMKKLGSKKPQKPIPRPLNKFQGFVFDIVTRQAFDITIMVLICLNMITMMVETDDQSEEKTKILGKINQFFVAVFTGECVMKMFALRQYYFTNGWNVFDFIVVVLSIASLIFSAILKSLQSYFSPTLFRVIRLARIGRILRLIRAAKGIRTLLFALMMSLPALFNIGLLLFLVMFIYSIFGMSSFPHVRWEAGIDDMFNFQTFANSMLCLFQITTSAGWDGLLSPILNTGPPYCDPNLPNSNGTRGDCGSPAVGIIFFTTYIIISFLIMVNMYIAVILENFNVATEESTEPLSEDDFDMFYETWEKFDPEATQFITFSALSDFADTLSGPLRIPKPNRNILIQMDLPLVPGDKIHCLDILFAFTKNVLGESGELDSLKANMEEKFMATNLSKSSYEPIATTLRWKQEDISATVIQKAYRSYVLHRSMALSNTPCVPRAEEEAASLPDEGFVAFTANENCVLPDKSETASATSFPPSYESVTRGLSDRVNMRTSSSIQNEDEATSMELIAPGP

In general, IC50 refers to the concentration at which inhibition is half-maximal. With `CCOc1ccc(-c2cncc(C(=O)N/N=C/c3cccc(OC)c3)n2)c(F)c1` [Compound 119, (E)-6-(4-ethoxy-2-fluorophenyl)-N′-(3-methoxybenzylidene)pyrazine-2-carbohydrazide], the IC50 in experiment [1] was 0.128 µM; in experiment [2], over 10 µM.

For `COc1ccc(-c2cncc(C(=O)N/N=C/c3ccc(N(C)C)cc3)n2)cc1` [Compound 64], the IC50 was found to be 1 µM in experiment [1] and 8.16 µM in experiment [2].

For the compound `COc1cc(/C=N/NC(=O)c2cncc(-c3ccc(OC)cc3OCCN(C)C)n2)cc(OC)c1` [Compound 160, (E)-N′-(3,5-dimethoxybenzylidene)-6-(2-(2-(dimethylamino)ethoxy)-4-methoxyphenol)pyrazine-2-carbohydrazide], the IC50 in experiment [1] was over 1 µM; in experiment [2] it was over 10 µM.

For `COc1cc(/C=N/NC(=O)c2cncc(-c3ccc(OC4CC4)cc3)n2)cc(OC)c1` [Compound 88, (E)-6-(4-cyclopropoxyphenyl)-N′-(3,5-dimethoxybenzylidene)pyrazine-2-carbohydrazide], the values for the IC50 in experiment [1] and in experiment [2] were 0.0426 µM and 0.0704 µM, respectively.

Take `COc1cc(/C=N/NC(=O)c2cncc(-c3ccccc3)n2)cc(OC)c1` [Compound 97, (E)-N′-(3,5-dimethoxybenzylidene)-6-phenylpyrazine-2-carbohydrazide]: the IC50 in experiment [1] was 0.395 µM; in experiment [2], over 10 µM.

In the case of `CCOc1ccc(-c2cncc(C(=O)N/N=C/c3cccc(OC)c3)n2)cc1` [Compound 22, (E)-6-(4-ethoxyphenyl)-N′-(3-methoxybenzylidene)pyrazine-2-carbohydrazide], the IC50 in experiment [1] is 0.0272 µM; in experiment [2], 0.228 µM.

Regarding `CCOc1ccc(-c2cnc(CC)c(C(=O)N/N=C/c3cc(OC)cc(OC)c3)n2)cc1` [Compound 144, (E)-N′-(3,5-dimethoxybenzylidene)-6-(4-ethoxyphenyl)-3-ethylpyrazine-2-carbohydrazide], the IC50 in experiment [1] and in experiment [2] was over 0.3 µM in each case.

Consider `COc1cc(/C=N/NC(=O)c2cnc(C(C)C)cn2)cc(OC)c1` [Compound 136, (E)-N′-(3,5-dimethoxybenzylidene)-5-isopropylpyrazine-2-carbohydrazide], for which the values for the IC50 in experiment [1] and in experiment [2] were over 1 µM and over 10 µM, respectively.

Consider `COc1ccc(-c2cncc(C(=O)N/N=C/C3CCCCCC3)n2)cc1` [Compound 181, (E)-N′-(cycloheptylmethylene)-6-(4-methoxyphenyl)pyrazine-2-carbohydrazide], for which the IC50 in experiment [1] is 0.32 µM; in experiment [2], 6.41 µM.

As to `CCOc1ccc(-c2cncc(C(=O)N/N=C/c3cc(OC)ccc3F)n2)cc1` [Compound 20, (E)-6-(4-ethoxyphenyl)-N′-(2-fluoro-5-methoxybenzylidene)pyrazine-2-carbohydrazide], the IC50 in experiment [1] is 0.0133 µM; in experiment [2], 0.228 µM.

In the case of `CCOc1ccc(-c2cncc(C(=O)N/N=C/c3cccc(OC)c3)n2)c(Cl)c1` [Compound 111, (E)-6-(2-chloro-4-ethoxyphenyl)-N′-(3-methoxybenzylidene)pyrazine-2-carbohydrazide], the IC50 in experiment [1] was 0.119 µM; in experiment [2], 0.541 µM.

Take `COc1cc(/C=N/NC(=O)c2cncc(-c3ccc(OC)cc3OC)n2)cc(OC)c1` [Compound 124, (E)-N′-(3,5-dimethoxybenzylidene)-6-(2,4-dimethoxyphenyl)pyrazine-2-carbohydrazide]: the IC50 in experiment [1] amounted to 0.0732 µM; in experiment [2] it was 0.181 µM.

Consider `COc1ccc(-c2cncc(C(=O)N/N=C/c3ccccc3C)n2)cc1` [Compound 51, (E)-6-(4-methoxyphenyl)-N′-(2-methylbenzylidene)pyrazine-2-carbohydrazide], for which the IC50 in experiment [1] was determined as 0.131 µM; in experiment [2] it was 1.38 µM.

Consider `COc1ccc(-c2cncc(C(=O)N/N=C/c3ccnc(C(N)=O)c3)n2)cc1` [Compound 36, (E)-4-((2-(6-(4-methoxyphenyl)pyrazine-2-carobnyl)hydrazono)methyl)picolinamide], for which the IC50 was over 1 µM in experiment [1] and over 10 µM in experiment [2].

For `COc1ccc(-c2cncc(C(=O)N/N=C/C3CCCCC3)n2)cc1` [Compound 173, (E)-N′-(cyclohexylmethylene)-6-(4-methoxyphenyl)pyrazine-2-carbohydrazide], the IC50 was 0.629 µM in experiment [1] and over 10 µM in experiment [2].

For the compound `CCOc1ccc(-c2cncc(C(=O)N/N=C/c3ccccc3OC)n2)cc1` [Compound 26, (E)-6-(4-ethoxyphenyl)-N′-(2-methoxybenzylidene)pyrazine-2-carbohydrazide], the concentration for half-maximal inhibition (IC50) worked out at 0.0249 µM in experiment [1] and 0.322 µM in experiment [2].

For `COc1cc(/C=N/NC(=O)c2cncc(-c3ccccc3Cl)n2)cc(OC)c1` [Compound 95, (E)-6-(2-chlorophenyl)-N′-(3,5-dimethoxybenzylidene)pyrazine-2-carbohydrazide], the values for the IC50 in experiment [1] and in experiment [2] were over 1 µM and over 10 µM, respectively.

With `CCCOc1cc(/C=N/NC(=O)c2cncc(-c3ccc(OCC)cc3OC)n2)cc(OC)c1` [Compound 106, (E)-6-(4-ethoxy-2-methoxyphenyl)-N′-(3-methoxy-5-propoxybenzylidene)pyrazine-2-carbohydrazide], the IC50 in experiment [1] came out at 0.0902 µM; in experiment [2], 0.083 µM.

For `COc1cc(/C=N/NC(=O)c2cncc(Cl)n2)cc(OC)c1` [Compound 163, (E)-6-chloro-N′-(3,5-dimethoxybenzylidene)pyrazine-2-carbohydrazide], the figures for the IC50 in experiment [1] and in experiment [2] were over 1 µM and over 10 µM, respectively.

For the compound `COc1cc(/C=N/NC(=O)c2cncc(-c3ccc(C)cc3)n2)cc(OC)c1` [Compound 96, (E)-N′-(3,5-dimethoxybenzylidene)-6-(p-tolyl)pyrazine-2-carbohydrazide], the half-inhibitory concentration (IC50) was 0.887 µM in experiment [1] and over 10 µM in experiment [2].

`COc1cc(/C=N/NC(=O)c2cncc(-c3cccnc3)n2)cc(OC)c1` [Compound 104, (E)-N′-(3,5-dimethoxybenzylidene)-6-(pyridin-3-yl)pyrazine-2-carbohydrazide]: the IC50 is over 1 µM in experiment [1] and over 10 µM in experiment [2].

As for `COc1ccc(-c2cncc(C(=O)N(C)/N=C/c3cc(OC)cc(OC)c3)n2)cc1` [Compound 168, (E)-N′-(3,5-dimethoxybenzylidene)-6-(4-methoxyphenyl)-N-methylpyrazine-2-carbohydrazide], the IC50 in experiment [1] was over 1 µM; in experiment [2], over 10 µM.

Take `CCOc1ccc(-c2cncc(C(=O)N/N=C/C3CCCCC3)n2)cc1` [Compound 171, (E)-N′-(cyclohexylmethylene)-6-(4-ethoxyphenyl)pyrazine-2-carbohydrazide]: the IC50 was over 1 µM in experiment [1] and over 10 µM in experiment [2].

For the compound `COc1ccc(-c2cncc(C(=O)N/N=C/c3ccc(C)cc3)n2)cc1` [Compound 65, (E)-6-(4-methoxyphenyl)-N′-(4-methylbenzylidene)pyrazine-2-carbohydrazide], the IC50 in experiment [1] is 0.8 µM; in experiment [2], 6.6 µM.

`CCOc1ccc(-c2cnc(C)c(C(=O)N/N=C/c3cc(OC)cc(OC)c3)n2)cc1` [Compound 143, (E)-N′-(3,5-dimethoxybenzylidene)-6-(4-ethoxyphenyl)-3-methylpyrazine-2-carbohydrazide]: the IC50 in experiment [1] was determined as 0.65 µM; in experiment [2] it was 5.15 µM.

As for `CCOc1ccc(-c2cncc(C(=O)N/N=C/c3ccccc3)n2)cc1` [Compound 170, (E)-N′-benzylidene-6-(4-ethoxyphenyl)pyrazine-2-carbohydrazide], the IC50 in experiment [1] was over 1 µM; in experiment [2], over 10 µM.

For the compound `COc1ccc(Oc2cnc(C(=O)N/N=C/c3cc(OC)cc(OC)c3)cn2)cc1` [Compound 130], the IC50 in experiment [1] is over 1 µM; in experiment [2], over 10 µM.

As for `COc1ccc(-c2cncc(C(=O)N/N=C/c3ccc(F)c(C(N)=O)c3)n2)cc1` [Compound 35, (E)-2-fluoro-5-((2-(6-(4-methoxyphenyl)pyrazine-2-carbonyl)hydrazono)methyl)benzamide], the figures for the IC50 in experiment [1] and in experiment [2] were over 1 µM and over 10 µM, respectively.

With `COc1cc(/C=N/NC(=O)c2cncc(-c3ccc(OC)cc3OC(F)(F)F)n2)cc(OC)c1` [Compound 112], the results for the IC50 in experiment [1] and in experiment [2] were 0.966 µM and 2.35 µM, respectively.

With `COc1cc(/C=N/NC(=O)c2cncc(-c3ccc(OC)cc3F)n2)cc(OC)c1` [Compound 121, (E)-N′-(3,5-dimethoxybenzylidene)-6-(2-fluoro-4-methoxyphenyl)pyrazine-2-carbohydrazide], the values for the IC50 in experiment [1] and in experiment [2] were 0.117 µM and 0.499 µM, respectively.

In the case of `Cc1cc(C)cc(/C=N/NC(=O)c2cncc(-c3ccc(OC4CCCC4)cc3)n2)c1` [Compound 150, (E)-6-(4-(cyclopentyloxy)phenyl)-N′-(3,5-dimethylbenzylidene)pyrazine-2-carbohydrazide], the values for the IC50 in experiment [1] and in experiment [2] were 0.118 µM and 0.121 µM, respectively.

On to `COc1ccc(-c2cncc(C(=O)N/N=C/c3ccc(Cl)cc3)n2)cc1` [Compound 61, (E)-N′-(4-chlorobenzylidene)-6-(4-methoxyphenyl)pyrazine-2-carbohydrazide], for which the IC50 turned out to be 0.614 µM in experiment [1] and 7.02 µM in experiment [2].

In the case of `COc1cc(/C=N/NC(=O)c2cncc(N3CCC(F)(F)CC3)n2)cc(OC)c1` [Compound 180, (E)-6-(4,4-difluoropiperidin-1-yl)-N′-(3,5-dimethoxybenzylidene)pyrazine-2-carbohyrazide], the IC50 was over 1 µM in experiment [1] and over 10 µM in experiment [2].

In the case of `CC(C)Oc1ccc(-c2cncc(C(=O)N/N=C/C3CCCCC3)n2)cc1` [Compound 175, (E)-N′-(cyclohexylmethylene)-6-(4-isopropoxyphenyl)pyrazine-2-carbohydrazide], the half-maximal inhibitory concentration (IC50) in experiment [1] is 0.361 µM; in experiment [2], 0.11 µM.

For the origin of these results see US20240335442A1 (Eurofarma Laboratórios S.A., priority 2021, published 2024).
